22 compounds from patent US5608091A, “Quinizarin compound, method for production thereof, and use therefor” (Nippon Shokubai Co., Ltd., priority 1993, dated 1997) can be followed below.

Holding throughout (type): physicochemical
The nature of series [1]: Solubility in toluene and methyl ethyl ketone, three-point scale. From the text:
In these tables, the solubility is rated on the three-point scale, wherein Δ stands for a solubility of less than 1% by weight, .largecircle. for a solubility in the approximate range of 1 to 3% by weight, and .circleincircle. for a solubility of not less than 3% by weight.

A short description of series [2]: Visible absorption spectrum (λmax, ε). The following applies: in chloroform; for ε: at λ max, in M-1 cm-1 (unit assumed).
A short description of series [3]: Color tone of the dye. The conditions noted are these: Tables 1-9.

Consider `O=C(O)c1c(F)c(F)c(Sc2c(F)c3c(c(F)c2Sc2c(F)c(F)c(C(=O)O)c(F)c2F)C(=O)c2c(O)ccc(O)c2C3=O)c(F)c1F` [(299)], for which, in series [1], the “Solubility in methyl ethyl ketone” value is given as “Δ (a solubility of less than 1% by weight)” and the Solubility in toluene result was “Δ (a solubility of less than 1% by weight)”. In series [2], this compound displayed a λ max of 510 nm and a ε of 12600. The Color tone entry in series [3] is given as “Cinnabar”.
For the compound `CCCCNc1c(F)c2c(c(F)c1Nc1ccccc1)C(=O)c1c(O)ccc(O)c1C2=O` [(229)], in series [1], the “Solubility in methyl ethyl ketone” value is on record as “.largecircle. (a solubility in the approximate range of 1 to 3% by weight)” and the Solubility in toluene result was “.largecircle. (a solubility in the approximate range of 1 to 3% by weight)”. In series [2], this compound displayed a λ max of 666 nm and a ε of 15300. Besides, in series [3], the Color tone result is “Cyan”.
`O=C1c2c(O)ccc(O)c2C(=O)c2c(Nc3ccccc3)c(Sc3ccccc3)c(Sc3ccccc3)c(Nc3ccccc3)c21` [(297)]: in series [1], the “Solubility in methyl ethyl ketone” value is “.largecircle. (a solubility in the approximate range of 1 to 3% by weight)” and the Solubility in toluene entry is given as “.largecircle. (a solubility in the approximate range of 1 to 3% by weight)”. For the same compound, in series [2], the λ max is listed as 692 nm and the ε is recorded as 15900. Moreover, in series [3], the Color tone result is reported as “Cyan”.
As to `O=C1c2c(O)ccc(O)c2C(=O)c2c(F)c(Nc3ccccc3)c(F)c(F)c21` [(1)], in series [1], the “Solubility in methyl ethyl ketone” value is recorded as “Δ (a solubility of less than 1% by weight)” and the Solubility in toluene result is “.largecircle. (a solubility in the approximate range of 1 to 3% by weight)”. Moreover, in series [2], the λ max was found to be 533 nm and the ε was 14800. Also, the Color tone result in series [3] was “Magenta”.
On the same counts, the results for `COc1ccc(Sc2c(F)c3c(c(F)c2Sc2ccc(OC)cc2)C(=O)c2c(O)ccc(O)c2C3=O)cc1` [(302)] are “.largecircle. (a solubility in the approximate range of 1 to 3% by weight)”, “.largecircle. (a solubility in the approximate range of 1 to 3% by weight)”, 504 nm, 15100 and “Cinnabar”.
On to `O=C1c2c(O)ccc(O)c2C(=O)c2c(F)c(Sc3ccc(O)cc3)c(Sc3ccc(O)cc3)c(F)c21` [(301)], for which, in series [1], the “Solubility in methyl ethyl ketone” value was “.largecircle. (a solubility in the approximate range of 1 to 3% by weight)” and the Solubility in toluene entry is listed as “.largecircle. (a solubility in the approximate range of 1 to 3% by weight)”. For the same compound, in series [2], the λ max is listed as 514 nm and the ε came out at 12900. Further, in series [3], the Color tone result was “Cinnabar”.
Take `COc1cccc(Nc2c(F)c(F)c3c(c2F)C(=O)c2c(O)ccc(O)c2C3=O)c1` [(16)]: in series [1], the “Solubility in methyl ethyl ketone” value is reported as “.largecircle. (a solubility in the approximate range of 1 to 3% by weight)” and the Solubility in toluene entry was “.largecircle. (a solubility in the approximate range of 1 to 3% by weight)”. In addition, in series [2], the λ max is 532 nm and the ε stood at 16300. The Color tone entry in series [3] is reported as “Magenta”.
Turning to `N#Cc1c(F)c(F)c(Sc2c(F)c3c(c(F)c2Sc2c(F)c(F)c(C#N)c(F)c2F)C(=O)c2c(O)ccc(O)c2C3=O)c(F)c1F` [(300)], in series [1], the “Solubility in methyl ethyl ketone” value is “Δ (a solubility of less than 1% by weight)” and the Solubility in toluene entry is “Δ (a solubility of less than 1% by weight)”. In series [2], this compound gave a λ max of 521 nm and a ε of 13200. Also, the Color tone result in series [3] is reported as “Cinnabar”.
For the compound `O=C1c2c(O)ccc(O)c2C(=O)c2c(F)c(SC3CCCCC3)c(SC3CCCCC3)c(F)c21` [(306)], in series [1], the “Solubility in methyl ethyl ketone” value is listed as “.largecircle. (a solubility in the approximate range of 1 to 3% by weight)” and the Solubility in toluene result is “.circleincircle. (a solubility of not less than 3% by weight)”. For the same compound, in series [2], the λ max worked out at 508 nm and the ε is 14000. Moreover, the Color tone entry in series [3] was “Orange”.
On the same counts, the results for `CC(C)(C)c1ccc(Nc2c(F)c(F)c3c(c2F)C(=O)c2c(O)ccc(O)c2C3=O)cc1` [(13)] are “.largecircle. (a solubility in the approximate range of 1 to 3% by weight)”, “.largecircle. (a solubility in the approximate range of 1 to 3% by weight)”, 540 nm, 11900 and “Magenta”.
For `O=C1c2c(O)ccc(O)c2C(=O)c2c(F)c(Sc3ccccc3)c(Sc3ccccc3)c(F)c21` [(298)], in series [1], the “Solubility in methyl ethyl ketone” value was “.largecircle. (a solubility in the approximate range of 1 to 3% by weight)” and the Solubility in toluene entry is recorded as “.circleincircle. (a solubility of not less than 3% by weight)”. In series [2], this compound came in with a λ max of 489 nm and a ε of 12700. Moreover, in series [3], the Color tone entry is on record as “Orange”.
The corresponding values for `O=C1c2c(O)ccc(O)c2C(=O)c2c(Sc3ccccc3)c(Sc3ccccc3)c(Sc3ccccc3)c(Sc3ccccc3)c21` [(307)] are “.largecircle. (a solubility in the approximate range of 1 to 3% by weight)”, “.largecircle. (a solubility in the approximate range of 1 to 3% by weight)”, 495 nm, 12600 and “Brown”.
The corresponding values for `Nc1c(Sc2ccccc2)c(Sc2ccccc2)c(F)c2c1C(=O)c1c(O)ccc(O)c1C2=O` [(296)] are “.largecircle. (a solubility in the approximate range of 1 to 3% by weight)”, “.largecircle. (a solubility in the approximate range of 1 to 3% by weight)”, 542 nm, 12300 and “Purple”.
For `CC(C)c1cccc(C(C)C)c1Nc1c(F)c(F)c2c(c1F)C(=O)c1c(O)ccc(O)c1C2=O` [(25)], in series [1], the “Solubility in methyl ethyl ketone” value is “.largecircle. (a solubility in the approximate range of 1 to 3% by weight)” and the Solubility in toluene entry is listed as “.circleincircle. (a solubility of not less than 3% by weight)”. In series [2], this compound had a λ max of 530 nm and a ε of 12800. Moreover, the Color tone result in series [3] was “Magenta”.
For the compound `N#Cc1ccc(Nc2c(F)c(F)c3c(c2F)C(=O)c2c(O)ccc(O)c2C3=O)cc1` [(10)], in series [1], the “Solubility in methyl ethyl ketone” value is “Δ (a solubility of less than 1% by weight)” and the Solubility in toluene entry is listed as “Δ (a solubility of less than 1% by weight)”. In series [2], this compound came in with a λ max of 523 nm and a ε of 20600. For the same compound, the Color tone entry in series [3] was “Magenta”.
For `CCCCCCCCOC(=O)c1cccc(Nc2c(F)c(F)c3c(c2F)C(=O)c2c(O)ccc(O)c2C3=O)c1` [(8)], in series [1], the “Solubility in methyl ethyl ketone” value was “.largecircle. (a solubility in the approximate range of 1 to 3% by weight)” and the Solubility in toluene result is “.largecircle. (a solubility in the approximate range of 1 to 3% by weight)”. Further, in series [2], the λ max amounted to 526 nm and the ε worked out at 17600. For the same compound, the Color tone entry in series [3] is on record as “Magenta”.
As for `CCCCSc1c(SCCCC)c(SCCCC)c2c(c1SCCCC)C(=O)c1c(O)ccc(O)c1C2=O` [(308)], in series [1], the “Solubility in methyl ethyl ketone” value is on record as “.largecircle. (a solubility in the approximate range of 1 to 3% by weight)” and the Solubility in toluene entry is reported as “.circleincircle. (a solubility of not less than 3% by weight)”. In series [2], this compound returned a λ max of 530 nm and a ε of 11100. Further, in series [3], the Color tone entry was “Magenta”.
On the same counts, the results for `N#Cc1ccc(Nc2c(F)c3c(c(F)c2Nc2ccc(C#N)cc2)C(=O)c2c(O)ccc(O)c2C3=O)cc1` [(126)] are “Δ (a solubility of less than 1% by weight)”, “Δ (a solubility of less than 1% by weight)”, 605 nm, 16600 and “Blue”.
On the same counts, the results for `CCCCOC(=O)c1ccc(Nc2c(F)c(F)c3c(c2F)C(=O)c2c(O)ccc(O)c2C3=O)cc1` [(6)] are “.largecircle. (a solubility in the approximate range of 1 to 3% by weight)”, “.largecircle. (a solubility in the approximate range of 1 to 3% by weight)”, 528 nm, 17900 and “Magenta”.
On the same counts, the results for `COc1ccc(Nc2c(F)c3c(c(F)c2Nc2ccc(OC)cc2)C(=O)c2c(O)ccc(O)c2C3=O)cc1` [(132)] are “.largecircle. (a solubility in the approximate range of 1 to 3% by weight)”, “.largecircle. (a solubility in the approximate range of 1 to 3% by weight)”, 649 nm, 13400 and “Cyan”.
As for `O=C1c2c(O)ccc(O)c2C(=O)c2c(F)c(NC3CCCCC3)c(F)c(F)c21` [(119)], in series [1], the “Solubility in methyl ethyl ketone” value is listed as “.largecircle. (a solubility in the approximate range of 1 to 3% by weight)” and the Solubility in toluene result was “.largecircle. (a solubility in the approximate range of 1 to 3% by weight)”. Also, in series [2], the λ max is 536 nm and the ε came out at 24500. The Color tone entry in series [3] is on record as “Magenta”.
As to `CCc1cccc(CC)c1Nc1c(F)c(F)c2c(c1F)C(=O)c1c(O)ccc(O)c1C2=O` [(18)], in series [1], the “Solubility in methyl ethyl ketone” value is on record as “.largecircle. (a solubility in the approximate range of 1 to 3% by weight)” and the Solubility in toluene entry is recorded as “.circleincircle. (a solubility of not less than 3% by weight)”. Also, in series [2], the λ max amounted to 528 nm and the ε was 14200. In addition, the Color tone result in series [3] is “Magenta”.
